Source: ChEMBL document CHEMBL3885881, “DrugMatrix”

Species: Rattus norvegicus
Experiment: DrugMatrix - Regimen: Daily Repeat
Type: toxicity, organism-based, Sprague-Dawley
Design: regimen Daily Repeat, gender Male, age 6-8 weeks
Conditions: in vivo, po, route oral GAVAGE, […]; for ABSOLUTE BASOPHIL / ABSOLUTE EOSINOPHIL / ABSOLUTE LYMPHOCYTE / ABSOLUTE MONOCYTE / ABSOLUTE SEGMENTED NEUTROPHIL / BASOPHIL / EOSINOPHIL / ERYTHROCYTE COUNT / HEMATOCRIT / HEMOGLOBIN / LEUKOCYTE COUNT / LYMPHOCYTE / MEAN CORPUSCULAR HEMOGLOBIN / MEAN CORPUSCULAR HEMOGLOBIN CONCENTRATION / MEAN CORPUSCULAR VOLUME / MONOCYTE / NEUTROPHIL / NUCLEATED RED BLOOD CELLS / PLATELET COUNT: tissue Blood; for ALANINE AMINOTRANSFERASE / ALBUMIN / ALKALINE PHOSPHATASE / ASPARTATE AMINOTRANSFERASE / BLOOD UREA NITROGEN / CARBON DIOXIDE / CHLORIDE / CHOLESTEROL / CREATINE PHOSPHOKINASE / CREATININE / GLUCOSE / LACTATE DEHYDROGENASE / LIPASE / PHOSPHORUS / POTASSIUM / SODIUM / TOTAL BILIRUBIN / TOTAL PROTEIN / URIC ACID: tissue Plasma
[1] = 0 mg/kg, 72 h, dose level Control, time 3 day
[2] = 0 mg/kg, 120 h, dose level Control, time 5 day
[3] = 1 mg/kg, 72 h, dose level Low, time 3 day

Structure (SMILES): C[C@H]1O[C@@H](O[C@H]2[C@@H](O)C[C@H](O[C@H]3[C@@H](O)C[C@H](O[C@H]4CC[C@@]5(C)[C@H](CC[C@@H]6[C@@H]5CC[C@]5(C)[C@@H](C7=CC(=O)OC7)CC[C@]65O)C4)O[C@@H]3C)O[C@@H]2C)C[C@H](O)[C@@H]1O [DIGITOXIN]
- ABSOLUTE BASOPHIL [1]: 0 CELLS/uL
- ABSOLUTE EOSINOPHIL [1]: 13.67 CELLS/uL
- ABSOLUTE LYMPHOCYTE [1]: 10069.5 CELLS/uL
- ABSOLUTE MONOCYTE [1]: 50 CELLS/uL
- ABSOLUTE SEGMENTED NEUTROPHIL [1]: 516.83 CELLS/uL
- BASOPHIL [1]: 0%
- EOSINOPHIL [1]: 0.17%
- ERYTHROCYTE COUNT [1]: 5.44 x10E6/uL
- HEMATOCRIT [1]: 33.88%
- HEMOGLOBIN [1]: 13.23 G/DL
- LEUKOCYTE COUNT [1]: 10.65 x10E3/uL
- LYMPHOCYTE [1]: 94.67%
- MEAN CORPUSCULAR HEMOGLOBIN [1]: 24.37 pg
- MEAN CORPUSCULAR HEMOGLOBIN CONCENTRATION [1]: 39.05 G/DL
- MEAN CORPUSCULAR VOLUME [1]: 62.38 fL
- MONOCYTE [1]: 0.67%
- NEUTROPHIL [1]: 4.5%
- NUCLEATED RED BLOOD CELLS [1]: 0.33 /100WBC
- PLATELET COUNT [1]: 414.5 x10E3/uL
- ALANINE AMINOTRANSFERASE [1]: 72 u/L
- ALBUMIN [1]: 3.75 G/DL
- ALKALINE PHOSPHATASE [1]: 375 u/L
- ASPARTATE AMINOTRANSFERASE [1]: 87.5 u/L
- BLOOD UREA NITROGEN [1]: 14 mg/dL
- CARBON DIOXIDE [1]: 27.5 mmol/L
- CHLORIDE [1]: 95.83 MEQ/L
- CHOLESTEROL [1]: 68.5 mg/dL
- CREATINE PHOSPHOKINASE [1]: 284.33 u/L
- CREATININE [1]: 0.16 mg/dL
- GLUCOSE [1]: 156.67 mg/dL
- LACTATE DEHYDROGENASE [1]: 101.83 u/L
- LIPASE [1]: 9.67 u/L
- PHOSPHORUS [1]: 10.33 mg/dL
- POTASSIUM [1]: 5.22 MEQ/L
- SODIUM [1]: 137.67 MEQ/L
- TOTAL BILIRUBIN [1]: 0.13 mg/dL
- TOTAL PROTEIN [1]: 5.43 G/DL
- URIC ACID [1]: 0.8 mg/dL
- ABSOLUTE BASOPHIL [2]: 0 CELLS/uL
- ABSOLUTE EOSINOPHIL [2]: 20.67 CELLS/uL
- ABSOLUTE LYMPHOCYTE [2]: 11518.33 CELLS/uL
- ABSOLUTE MONOCYTE [2]: 47 CELLS/uL
- ABSOLUTE SEGMENTED NEUTROPHIL [2]: 614 CELLS/uL
- BASOPHIL [2]: 0%
- EOSINOPHIL [2]: 0.17%
- ERYTHROCYTE COUNT [2]: 5.61 x10E6/uL
- HEMATOCRIT [2]: 34.25%
- HEMOGLOBIN [2]: 13.38 G/DL
- LEUKOCYTE COUNT [2]: 12.2 x10E3/uL
- LYMPHOCYTE [2]: 94.33%
- MEAN CORPUSCULAR HEMOGLOBIN [2]: 23.83 pg
- MEAN CORPUSCULAR HEMOGLOBIN CONCENTRATION [2]: 39.08 G/DL
- MEAN CORPUSCULAR VOLUME [2]: 61.03 fL
- MONOCYTE [2]: 0.33%
- NEUTROPHIL [2]: 5.17%
- NUCLEATED RED BLOOD CELLS [2]: 0 /100WBC
- PLATELET COUNT [2]: 941.83 x10E3/uL
- ALANINE AMINOTRANSFERASE [2]: 68.83 u/L
- ALBUMIN [2]: 4.12 G/DL
- ALKALINE PHOSPHATASE [2]: 492.67 u/L
- ASPARTATE AMINOTRANSFERASE [2]: 83.33 u/L
- BLOOD UREA NITROGEN [2]: 14 mg/dL
- CARBON DIOXIDE [2]: 37 mmol/L
- CHLORIDE [2]: 98.67 MEQ/L
- CHOLESTEROL [2]: 56.5 mg/dL
- CREATINE PHOSPHOKINASE [2]: 167.33 u/L
- CREATININE [2]: 0.17 mg/dL
- GLUCOSE [2]: 157.5 mg/dL
- LACTATE DEHYDROGENASE [2]: 104.83 u/L
- LIPASE [2]: 10 u/L
- PHOSPHORUS [2]: 10.43 mg/dL
- POTASSIUM [2]: 5.46 MEQ/L
- SODIUM [2]: 143.87 MEQ/L
- TOTAL BILIRUBIN [2]: 0.17 mg/dL
- TOTAL PROTEIN [2]: 5.72 G/DL
- URIC ACID [2]: 0.85 mg/dL
- ABSOLUTE BASOPHIL [3]: 0 CELLS/uL
- ABSOLUTE EOSINOPHIL [3]: 39.67 CELLS/uL
- ABSOLUTE LYMPHOCYTE [3]: 11912.33 CELLS/uL
- ABSOLUTE MONOCYTE [3]: 73.33 CELLS/uL
- ABSOLUTE SEGMENTED NEUTROPHIL [3]: 641.33 CELLS/uL
- BASOPHIL [3]: 0%
- EOSINOPHIL [3]: 0.33%
- ERYTHROCYTE COUNT [3]: 5.7 x10E6/uL
- HEMATOCRIT [3]: 35.6%
- HEMOGLOBIN [3]: 13.77 G/DL
- LEUKOCYTE COUNT [3]: 12.67 x10E3/uL
- LYMPHOCYTE [3]: 93.67%
- MEAN CORPUSCULAR HEMOGLOBIN [3]: 24.13 pg
- MEAN CORPUSCULAR HEMOGLOBIN CONCENTRATION [3]: 38.7 G/DL
- MEAN CORPUSCULAR VOLUME [3]: 62.33 fL
- MONOCYTE [3]: 0.67%
- NEUTROPHIL [3]: 5.33%
- NUCLEATED RED BLOOD CELLS [3]: 0 /100WBC
- PLATELET COUNT [3]: 661.33 x10E3/uL
- ALANINE AMINOTRANSFERASE [3]: 72.67 u/L
- ALBUMIN [3]: 3.77 G/DL
- ALKALINE PHOSPHATASE [3]: 495.33 u/L
- ASPARTATE AMINOTRANSFERASE [3]: 95.67 u/L
- BLOOD UREA NITROGEN [3]: 12 mg/dL
- CARBON DIOXIDE [3]: 25.67 mmol/L
- CHLORIDE [3]: 96.33 MEQ/L
- CHOLESTEROL [3]: 70.67 mg/dL
- CREATINE PHOSPHOKINASE [3]: 398.33 u/L
- CREATININE [3]: 0.17 mg/dL
- GLUCOSE [3]: 146.67 mg/dL
- LACTATE DEHYDROGENASE [3]: 188.67 u/L
- LIPASE [3]: 11 u/L
- PHOSPHORUS [3]: 10.1 mg/dL
- POTASSIUM [3]: 5.78 MEQ/L
- SODIUM [3]: 137.9 MEQ/L
- TOTAL BILIRUBIN [3]: 0.13 mg/dL
- TOTAL PROTEIN [3]: 5.57 G/DL
